Read-outs that look alike come from different tables or passages of the source.
Key:
[1] = tested on: hepatitis C replicon; test: hepatitis C replicon EC50; assay type: cell-based; conditions: Hepatitis C virus
From the text: NS3-NS4 inhibition activity can be determined using known assay methods.

[2] = molecular target: NS3/NS4 complexes (Hepatitis C virus genotype 1a, UniProt P27958); test: NS3/NS4 inhibition activity (IC50); assay type: biochemical
From the text: NS3-NS4 inhibition activity can be determined using known assay methods. For example, NS3/NS4 complexes may be formed and inhibitory concentrations of test compounds determined as described in U.S. Patent Application Publication Number 2007/0054842 paragraph numbers 1497-1509, which is incorporated herein by reference in its entirety. Similarly, hepatitis C replicon EC50 may be determined using known assay methods such as described in U.S. Patent Application Publication Number 2007/0054842 paragraph numbers 1510-1515. Assays may be conducted at ambient temperature (23° C.) in assay buffer containing 50 mM Tris-HCl, pH 7.5, 15% glycerol, 0.6 mM Lauryldimethylamine Oxide (LDAO), 25 μM NS4A peptide, and 10 mM Dithiothreitol (DTT).

[3] = Table 2, hepatitis C replicon, read-out: EC50
[4] = Table 3, hepatitis C replicon, read-out: EC50

Chain of NS3/NS4 complexes (P27958 1027-1657): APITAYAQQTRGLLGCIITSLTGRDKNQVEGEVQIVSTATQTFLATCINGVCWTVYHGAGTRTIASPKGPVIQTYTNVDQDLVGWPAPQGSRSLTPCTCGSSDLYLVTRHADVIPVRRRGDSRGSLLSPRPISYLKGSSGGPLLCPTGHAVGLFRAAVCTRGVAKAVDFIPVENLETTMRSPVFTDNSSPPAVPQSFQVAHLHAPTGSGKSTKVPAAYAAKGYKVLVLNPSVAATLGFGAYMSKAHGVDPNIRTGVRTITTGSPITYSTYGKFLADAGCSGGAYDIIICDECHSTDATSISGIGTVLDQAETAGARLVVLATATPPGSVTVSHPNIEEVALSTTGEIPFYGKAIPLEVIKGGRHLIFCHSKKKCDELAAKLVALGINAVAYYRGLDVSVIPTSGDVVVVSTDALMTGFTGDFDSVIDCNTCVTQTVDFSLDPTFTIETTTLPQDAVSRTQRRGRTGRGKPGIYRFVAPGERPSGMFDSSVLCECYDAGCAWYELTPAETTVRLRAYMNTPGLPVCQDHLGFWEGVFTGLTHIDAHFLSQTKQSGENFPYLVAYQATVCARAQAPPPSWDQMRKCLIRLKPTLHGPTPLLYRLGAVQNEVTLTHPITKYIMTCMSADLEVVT
Chain of NS3/NS4 complexes (P27958 1658-1711): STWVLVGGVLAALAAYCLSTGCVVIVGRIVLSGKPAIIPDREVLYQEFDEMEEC

SMILES	EC50 [1, 3] [nM]	IC50 ([2]; Table 2, read-out: IC50) [nM]	EC50 [1, 4] [nM]	IC50 ([2]; Table 3, read-out: IC50) [nM]	further results
COc1ccc2c(O[C@@H]3C[C@H]4C(=O)N[C@]5(C(=O)NS(=O)(=O)C6(C)CC6)C[C@H]5/C=C\CCCCC[C@H](Nc5ccccc5F)C(=O)N4C3)cc(-c3nc(C(C)C)cs3)nc2c1C [Compound 492]	10 to 75	< 10			
COc1ccc2c(O[C@@H]3C[C@H]4C(=O)N[C@]5(C(=O)O)C[C@H]5/C=C\CCCCC[C@H](Nc5cc(F)cc(C(F)(F)F)c5)C(=O)N4C3)cc(-c3ccccc3)nc2c1 [Compound 354]	75 to 500	< 10			
CN(C)C(=O)c1cccc(N[C@H]2CCCCC/C=C\[C@@H]3C[C@@]3(C(=O)NS(=O)(=O)C3(C)CC3)NC(=O)[C@@H]3C[C@@H](OC(=O)N4Cc5cccc(F)c5C4)CN3C2=O)c1 [Compound 1106]			10 to 100	< 10	
COc1ccc2c(O[C@@H]3C[C@H]4C(=O)N[C@]5(C(=O)NS(=O)(=O)C6(C)CC6)C[C@H]5/C=C\CCCCC[C@H](Nc5cccc(OC(F)(F)F)c5)C(=O)N4C3)cc(-c3ccccc3)nc2c1 [Compound 392]	< 10	< 10			
COc1ccc2c(O[C@@H]3C[C@H]4C(=O)N[C@]5(C(=O)NS(=O)(=O)C6(C)CC6)C[C@H]5/C=C\CCCCC[C@H](Nc5ccccc5)C(=O)N4C3)cc(-c3nc(C(C)C)cs3)nc2c1C [Compound 359]	< 10	< 10			
CC(C)(C)OC(=O)N[C@H]1CCCCC/C=C\[C@@H]2C[C@@]2(C(=O)NS(=O)(=O)C2(C)CC2)NC(=O)[C@@H]2C[C@@H](Oc3nc4ccccc4n3COCC[Si](C)(C)C)CN2C1=O [Compound 701]			10 to 100		IC50 ([2]; IC50, Table 3): < 10 nM
CC(C)(C)OC(=O)N[C@H]1CCCCC/C=C\[C@@H]2C[C@@]2(C(=O)NS(=O)(=O)C2CC2)NC(=O)[C@@H]2C[C@@H](Oc3nc4cccc(F)c4o3)CN2C1=O [Compound 1038]			10 to 100	< 10	
Cc1cc(F)cc(N[C@H]2CCCCC/C=C\[C@@H]3C[C@@]3(C(=O)NS(=O)(=O)C3(C)CC3)NC(=O)[C@@H]3C[C@@H](OC(=O)N4Cc5cccc(F)c5C4)CN3C2=O)c1 [Compound 1105]			< 10	< 10	
CC1(S(=O)(=O)NC(=O)[C@@]23C[C@H]2/C=C\CCCCC[C@H](Nc2nc4ccccc4o2)C(=O)N2C[C@H](OC(=O)N4Cc5cccc(F)c5C4)C[C@H]2C(=O)N3)CC1 [Compound 1127]			10 to 100	< 10	
CO[C@@H]1C[C@H]2C(=O)N[C@]3(C(=O)NS(=O)(=O)CC(=O)Nc4ccccc4)C[C@H]3/C=C\CCCCC[C@H](NC(=O)OC(C)(C)C)C(=O)N2C1 [Compound 1099]				< 10	EC50 [1]: < 10 nM
COc1ccc2c(O[C@@H]3C[C@H]4C(=O)N[C@]5(C(=O)NS(=O)(=O)C6CC6)C[C@H]5/C=C\CCCCC[C@H](Nc5cccc(C(F)(F)F)c5)C(=O)N4C3)cc(-c3nc(C(C)C)cs3)nc2c1C [Compound 369]	< 10	< 10			
CC1(S(=O)(=O)NC(=O)[C@@]23C[C@H]2/C=C\CCCCC[C@H](Nc2ccc(F)c(C(F)(F)F)c2)C(=O)N2C[C@H](Oc4nccc5ccccc45)C[C@H]2C(=O)N3)CC1 [Compound 347]	< 10	< 10			
CCn1c(O[C@@H]2C[C@H]3C(=O)N[C@]4(C(=O)O)C[C@H]4/C=C\CCCCC[C@H](Nc4cc(F)cc(C(F)(F)F)c4)C(=O)N3C2)nc2ccccc21 [Compound 318]	> 500	< 10			
CC1(S(=O)(=O)NC(=O)[C@@]23C[C@H]2/C=C\CCCCC[C@H](Nc2ccc(OC(F)(F)F)cc2)C(=O)N2C[C@H](OC(=O)N4Cc5cccc(F)c5C4)C[C@H]2C(=O)N3)CC1 [Compound 1119]			10 to 100	< 10	
Cc1ccc2nc(O[C@@H]3C[C@H]4C(=O)N[C@]5(C(=O)NS(=O)(=O)C6CC6)C[C@H]5/C=C\CCCCC[C@H](NC(=O)OC(C)(C)C)C(=O)N4C3)sc2c1 [Compound 1015]			< 10	< 10	
CC1(S(=O)(=O)NC(=O)[C@@]23C[C@H]2/C=C\CCCCC[C@H](Nc2cc(F)cc(C(F)(F)F)c2)C(=O)N2C[C@H](OC(=O)N4Cc5cccc(F)c5C4)C[C@H]2C(=O)N3)CC1 [Compound 1100]			< 10	< 10	
COc1ccc2c(O[C@@H]3C[C@H]4C(=O)N[C@]5(C(=O)NS(=O)(=O)C6(C)CC6)C[C@H]5/C=C\CCCCC[C@H](Nc5ccccc5)C(=O)N4C3)cc(-c3ccccc3)nc2c1 [Compound 220]	< 10	< 10			
Cc1ccc2nc(O[C@@H]3C[C@H]4C(=O)N[C@]5(C(=O)NS(=O)(=O)N(C)C)C[C@H]5/C=C\CCCCC[C@H](NC(=O)OC(C)(C)C)C(=O)N4C3)n(C(C)C)c2c1 [Compound 1139]			< 10	< 10	
CNC(=O)c1cccc(N[C@H]2CCCCC/C=C\[C@@H]3C[C@@]3(C(=O)NS(=O)(=O)C3(C)CC3)NC(=O)[C@@H]3C[C@@H](Oc4cc(-c5nc(C(C)C)cs5)nc5c(C)c(OC)ccc45)CN3C2=O)c1 [Compound 474]	< 10	< 10			
CC1(S(=O)(=O)NC(=O)[C@@]23C[C@H]2/C=C\CCCCC[C@H](Nc2nc4ccccc4o2)C(=O)N2C[C@H](Oc4nccc5ccccc45)C[C@H]2C(=O)N3)CC1 [Compound 380]	10 to 75	< 10			
CC1(S(=O)(=O)NC(=O)[C@@]23C[C@H]2/C=C\CCCCC[C@H](Nc2cccc(C(F)(F)F)c2)C(=O)N2C[C@H](Oc4nc5ccc(Br)cc5s4)C[C@H]2C(=O)N3)CC1 [Compound 223]	75 to 500	< 10			
CCn1c(O[C@@H]2C[C@H]3C(=O)N[C@]4(C(=O)NS(=O)(=O)C5CC5)C[C@H]4/C=C\CCCCC[C@H](Nc4cc(F)cc(C(F)(F)F)c4)C(=O)N3C2)nc2ccccc21 [Compound 388]	10 to 75	< 10			
Cc1ccccc1N[C@H]1CCCCC/C=C\[C@@H]2C[C@@]2(C(=O)NS(=O)(=O)C2(C)CC2)NC(=O)[C@@H]2C[C@@H](OC(=O)N3Cc4cccc(F)c4C3)CN2C1=O [Compound 1114]			10 to 100	< 10	
CC(C)(C)OC(=O)N[C@H]1CCCCC/C=C\[C@@H]2C[C@@]2(C(=O)NS(=O)(=O)C2(C)CC2)NC(=O)[C@@H]2C[C@@H](Oc3nc4cc(Cl)ccc4o3)CN2C1=O [Compound 1046]			> 100	< 10	
COc1ccc2c(O[C@@H]3C[C@H]4C(=O)N[C@]5(C(=O)NS(=O)(=O)C6CC6)C[C@H]5/C=C\CCCCC[C@H](Nc5cccc(OC(F)(F)F)c5)C(=O)N4C3)cc(-c3nc(C(C)C)cs3)nc2c1C [Compound 377]	< 10	< 10			
CCn1c(O[C@@H]2C[C@H]3C(=O)N[C@]4(C(=O)NS(=O)(=O)C5(C)CC5)C[C@H]4/C=C\CCCCC[C@H](Nc4cc(F)cc(C(F)(F)F)c4)C(=O)N3C2)nc2ccccc21 [Compound 319]	< 10	< 10			
CC1(S(=O)(=O)NC(=O)[C@@]23C[C@H]2/C=C\CCCCC[C@H](Nc2cc(C(F)(F)F)cc(C(F)(F)F)c2)C(=O)N2C[C@H](Oc4nc5ccccc5s4)C[C@H]2C(=O)N3)CC1 [Compound 336]	75 to 500	< 10			
CC(C)(C)OC(=O)N[C@H]1CCCCC/C=C\[C@@H]2C[C@@]2(C(=O)NS(=O)(=O)C2(C)CC2)NC(=O)[C@@H]2C[C@@H](Oc3nc4ccccc4o3)CN2C1=O [Compound 1028]			10 to 100	< 10	
CC1(S(=O)(=O)NC(=O)[C@@]23C[C@H]2/C=C\CCCCC[C@H](Nc2ccccc2F)C(=O)N2C[C@H](OC(=O)N4Cc5cccc(F)c5C4)C[C@H]2C(=O)N3)CC1 [Compound 1124]			10 to 100	< 10	

Source: patent US8048862B2, “Macrocyclic inhibitors of hepatitis C virus replication” (priority 2008, dated 2011)
